Laboratory results: patent US11419858B2, “Composition and methods for treating heritable pulmonary artery hypertension associated with nonsense mutations” (The Lundquist Institute, priority 2019, dated 2022)
Entries after “also recorded” stand apart in the source; their conditions may differ.

Assays:
Mice = assay: Chronic safety/toxicity, 4 weekly doses; format: in vivo; conditions: for ALB / ALP / ALT / AMY / BUN / CA+ / CRE / Cholesterol / GLU / NA+ / PHOS / TIM / TP / Triglyceride: 4 weekly injections, 1 week after last
Method: Both acute (a single dose of GJ103 administration) and chronic (4 weekly doses of GJ103 administration) in vivo toxicity studies were performed.
Mice (N=5 per group) were injected once a week for 4 weeks i.p. at doses of 25 or 50 mg/kg of GJ103, animals were sacrificed 1 week after the last injection, and the CBC and chemistries were repeated as outlined in the acute safety/toxicity study. Untreated or vehicle treated mice served as controls.

Bmpr2+/R899X mice lungs = assay: Lung apoptosis (BCL-2/Bax ratio in lung homogenates); format: in vivo; conditions: FIG. 8
From the text: Pulmonary endothelial cell apoptosis is thought to initiate development of hPAH by triggering vaso-occlusive fibroproliferation. Therefore, this example next determined the effect of GJ103 on BCL-2 and Bax lung protein levels in WT and Bmpr2^+/R899X mice, and assessed how GJ103 affects spontaneous apoptosis in Bmpr2^+/R899X mice lungs.

[1] = tested on: BMPR2 protein in lungs of Bmpr2+/R899X and Bmpr2+/R584X mice; assay: In vivo BMPR2 protein in lung homogenates; conditions: 25 or 50 mg/kg i.p. once daily for 5 days, FIG. 6
Method: Having determined apparent in vivo safety of GJ103, this example next assessed if GJ103 administered i.p. improves BMPR2 proteins levels and activates BMP signaling in the pulmonary arteries of mice with a nonsense mutation.
To test this, Bmpr2^+/R899X and Bmpr2^+/R584X mice were administered vehicle, 25 mg/kg or 50 mg/kg GJ103 i.p. once daily for 5 days. Mice were then sacrificed and lung homogenates probed for BMPR2 protein levels (FIG. 6). Compared to WT (Bmpr2+/+) littermate controls, both Bmpr2^+/R899X and Bmpr2^+/R584X mice expressed ˜25-33% of WT BMPR2 protein levels.

How did the ALB (Mice; GJ103 25 mg/kg i.p.) turn out when COc1cccc(-n2c(SCC(=O)O)nnc2-c2ccccn2)c1 [GJ103, 2-((4-(3-methoxyphenyl)-5-(pyridin-2-yl)-4H-1,2,4-triazol-3-yl)thio)acetic acid] was run?
The ALB was 4.2 ± 0.27 g/dL.

And the ALP (Mice; GJ103 25 mg/kg i.p.)?
The ALP was 69 ± 17.5 U/L.

And the ALT (Mice; GJ103 25 mg/kg i.p.)?
The ALT was 27 ± 4.38 U/L.

What about the AMY (Mice; GJ103 25 mg/kg i.p.) of the same compound?
Its AMY is 605 ± 72.39 mg/dL.

And the BUN (Mice; GJ103 25 mg/kg i.p.)?
Its BUN is 19 ± 3.05 mg/dL.

What about the “CA+” value (Mice; GJ103 25 mg/kg i.p.) of the same compound?
The value was 9.9 ± 0.4 mg/dL.

What about the CRE (Mice; GJ103 25 mg/kg i.p.) of the same compound?
The CRE was 0.3 ± 0.08 mg/dL.

What about the Cholesterol (Mice; GJ103 25 mg/kg i.p.) of the same compound?
Its Cholesterol is under 100 mg/dL.

What about the GLU (Mice; GJ103 25 mg/kg i.p.) of the same compound?
The GLU was 173 ± 19.14 mg/dL.

What about the “NA+” value (Mice; GJ103 25 mg/kg i.p.) of the same compound?
Its value is 149 ± 3.19 mM.

What about the PHOS (Mice; GJ103 25 mg/kg i.p.) of the same compound?
Its PHOS is 6.7 ± 0.99 mg/dL.

What about the TIM (Mice; GJ103 25 mg/kg i.p.) of the same compound?
Its TIM is 0.2 ± 0.04 mg/dL.

What about the TP (Mice; GJ103 25 mg/kg i.p.) of the same compound?
The TP was 5.7 ± 0.18 g/dL.

What about the Triglyceride (Mice; GJ103 25 mg/kg i.p.) of the same compound?
Its Triglyceride is 62 ± 10.6 mg/dL.

What about the ALB (Mice; GJ103 50 mg/kg i.p.) of the same compound?
Its ALB is 4.1 ± 0.36 g/dL.

And the ALP (Mice; GJ103 50 mg/kg i.p.)?
The ALP was 71 ± 13 U/L.

And the ALT (Mice; GJ103 50 mg/kg i.p.)?
The ALT was 30 ± 12.5 U/L.

And the AMY (Mice; GJ103 50 mg/kg i.p.)?
The AMY was 742 ± 101.74 mg/dL.

And the BUN (Mice; GJ103 50 mg/kg i.p.)?
The BUN was 20 ± 3.40 mg/dL.

And the “CA+” value (Mice; GJ103 50 mg/kg i.p.)?
The value was 9.9 ± 0.54 mg/dL.

What about the CRE (Mice; GJ103 50 mg/kg i.p.) of the same compound?
The CRE was 0.3 ± 0.06 mg/dL.

And the Cholesterol (Mice; GJ103 50 mg/kg i.p.)?
The Cholesterol was under 100 mg/dL.

What about the GLU (Mice; GJ103 50 mg/kg i.p.) of the same compound?
The GLU was 176 ± 15.52 mg/dL.

And the “NA+” value (Mice; GJ103 50 mg/kg i.p.)?
The value was 149 ± 2.50 mM.

What about the PHOS (Mice; GJ103 50 mg/kg i.p.) of the same compound?
Its PHOS is 7.1 ± 1.95 mg/dL.

What about the TIM (Mice; GJ103 50 mg/kg i.p.) of the same compound?
The TIM was 0.2 ± 0.05 mg/dL.

And the TP (Mice; GJ103 50 mg/kg i.p.)?
The TP was 5.6 ± 0.39 g/dL.

And the Triglyceride (Mice; GJ103 50 mg/kg i.p.)?
Its Triglyceride is 61 ± 13.38 mg/dL.

And the “LDH levels in lung, liver, kidney and heart tissue lysates” value (Mice; chronic study, vs untreated or vehicle controls)?
Its value is “no statistically significant differences”.

What about the “changes in CBC and chemistries” value (Mice; once a week for 4 weeks i.p. 25 or 50 mg/kg, Table 2) of the same compound?
The value was “no significant changes in any of the parameters determined”.

And the “lung apoptosis (BCL-2/Bax ratio)” value (Bmpr2+/R899X mice lungs)?
Its value is “blocked spontaneous apoptosis; also recorded: dose-dependently blocked”.

What about the “BMPR2 protein expression in lung homogenates” value [1] of the same compound?
Its value is “significantly increased BMPR2 expression”.
